In publication PMC7060200, “Selective Binding of HSC70 and its Co-Chaperones to Structural Hotspots on CFTR” (Scientific Reports, 2020):
Ends that are not written are not given here.

Columns and labels:
HSC70 [1] = target: T1, HSC70 (Homo sapiens, UniProt P11142); assay: Competition ELISA: soluble peptide vs HSC70 binding to immobilized 1097-L; settings: for competition of HSC70 binding to immobilized 1097-L (in words): 1 μM HSC70, soluble peptide up to 100 μM; for Kd: read-out: Kd from competition curves, HSC70
T1 construct: made in house
T1 sequence (P11142 whole entry): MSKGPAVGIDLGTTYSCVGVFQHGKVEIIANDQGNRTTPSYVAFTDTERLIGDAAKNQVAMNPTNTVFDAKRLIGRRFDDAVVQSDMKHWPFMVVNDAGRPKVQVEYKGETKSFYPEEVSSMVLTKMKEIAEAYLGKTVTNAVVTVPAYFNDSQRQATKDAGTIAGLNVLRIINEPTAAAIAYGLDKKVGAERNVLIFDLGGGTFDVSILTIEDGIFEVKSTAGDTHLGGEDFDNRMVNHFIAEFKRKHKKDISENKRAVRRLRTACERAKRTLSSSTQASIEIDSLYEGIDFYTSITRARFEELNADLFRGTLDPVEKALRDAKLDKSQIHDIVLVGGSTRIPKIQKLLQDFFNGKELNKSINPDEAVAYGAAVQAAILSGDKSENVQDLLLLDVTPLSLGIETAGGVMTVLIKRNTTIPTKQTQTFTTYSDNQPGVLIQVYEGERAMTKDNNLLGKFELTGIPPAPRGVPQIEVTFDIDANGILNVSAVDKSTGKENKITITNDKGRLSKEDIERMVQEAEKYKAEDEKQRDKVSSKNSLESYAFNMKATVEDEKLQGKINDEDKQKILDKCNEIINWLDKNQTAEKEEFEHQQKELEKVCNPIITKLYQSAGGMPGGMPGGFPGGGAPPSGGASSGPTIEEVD
Procedure: (§1) HSC70, DJA1 and DJA2 were purified as His-tagged proteins, as described. HSC70 was also amplified by PCR with an N-terminal FLAG tag, inserted into pPROEXHTa (Invitrogen) and purified as described. HSC70 was stored in 100 mM KOAc, 20 mM HEPES-KOH pH 7.5, 5 mM MgOAC2 (buffer G), DJA1 and DJA2 in 500 mM NaCl, 20 mM HEPES-KOH pH 7.5, 5 mM MgOAC2 (buffer H). Avi-tagged CFTR NBD1 was purified as described.
(§2) The CFTR peptide library was designed as 15-mers with 10-residue overlaps covering the cytosolic sequences as in Fig. 1a and Supplemental Table S1. Synthetic peptides (Mimotopes, PepSet purity) contained an N-terminal biotin followed by linker sequence GSGS and the 15-mer sequence. […] Peptides were reconstituted in DMSO or water.
(§3) For peptide binding, streptavidin-coated black 96-well plates (Nunc Maxisorp, ThermoFisher) were pre-rinsed with PBS containing 0.05% Tween-20 (PBST), and 5 µM biotinylated peptides in 100 µl PBS were bound overnnight at 4 °C with agitation. Plates were washed with PBST and blocked with PBST containing 0.5% bovine serum albumin (BSA) for 1 h. After removal of blocking solution, 100 µl reactions containing chaperones at indicated concentrations were bound for 45 min at room temperature with agitation. HSC70 reactions were in buffer G containing 1 mM ATP, DJA1 and DJA2 reactions were in buffer H. For competition assays, chaperones and peptides were mixed at indicated concentrations immediately before the reactions were added to the plates. For detections, the plates were washed in PBST and 5 μM His-Probe-HRP conjugate (ThermoFisher) in 100 μL PBST added for 15 min with agitation. After washing in PBST, plates were developed using Amplex Red (ThermoFisher) according to manufacturer’s instructions, in a fluorescence plate reader (Tecan M1000).
(§4) Affinities were determined separately from binding curves and from competition curves. Data from binding of chaperones to immobilized peptides (Fig. 2a,b and Supplemental Fig. S2a–c) were fit to the equation 1/(1 − i) = (C/i)/Kd^B − b, where i is the relative saturation, C is the chaperone concentration (1 μM), Kd^B is the apparent dissociation constant from the binding data. In the plot of 1/(1 − i) against (C/i), the slope is 1/Kd^B, and −b is the intercept. […] In the plot of bi + (C/Kd^B)/i over D, the slope is 1/Kd^C, and e is the intercept. The amount of chaperone bound in the absence of competitor was set as i = 1.
(§5) Established statistical methods[71]–[73] were used to analyze the data for chaperone binding to the peptide library. First, biological and statistical outliers were identified with the Tukey method in two rounds, for biological and then statistical outliers. […] Binding data were represented as multiples of the standard deviations from the normal means. Binding in the presence of competitor peptides were shown as a fraction of binding in the absence of competitor, or the fraction competed calculated as 1 – fraction bound. Values were compared using a two-tailed unpaired Student’s t-test assuming unequal variance.

HSC70 and DJA2 = assay: Refolding of guanidine denatured luciferase by HSC70 and DJA2; assay type: biochemical; settings: 4 μM each HSC70 and DJA2, 100 nM luciferase, 100 μM peptide (25-fold excess), 60 min, % of control without peptide; n = 3
Procedure: Refolding of guanidine denatured luciferase with HSC70 and DJA2 was as described. […] To monitor refolding, luciferase activity was measured in a luminometer (Berthold Sirius) with the luciferase assay kit (Promega). For co-IPs, 20 μL reaction aliquots were stopped by dilution at 4 °C to 500 μL with buffer containing 0.1% Triton X-100, 0.2% BSA and 0.04 mg/mL apyrase (Sigma). Reactions were incubated with FLAG-M2 magnetic beads (Sigma) for 1 h at 4 °C with agitation, then beads were isolated and washed with buffer G containing 0.1% Triton X-100, and eluted with 40 μL of 1 μg/mL FLAG peptide in the same buffer. Samples were analyzed on Western blots detected with antibodies against luciferase (Sigma, L2164) and the FLAG-M2 tag (Sigma, F1804).

HSC70 [2] = target: T1, HSC70; assay: ELISA binding of HSC70 to immobilized CFTR NBD1 and competition by soluble peptides; settings: 1 μM HSC70, with ATP, soluble peptide, Fig. 4a; n = 5
Procedure: as §1
For NBD1 binding, 100 nM of strep-tagged NBD1 in 100 µl of 150 mM NaCl, 50 mM Na2HPO4 pH 7.5, 1 mM ATP, and 40 µM DTT (buffer N), was bound to streptavidin plates for 1 hour at 4 °C with agitation. Plates were washed with PBST and incubated in buffer N at 30 °C in a water bath for 5 min. Then, plates were blocked in PBST containing 0.5% BSA, followed by the addition of HSC70 binding reactions, and detection as above.

DJA2 [3] = target: T2, DJA2 (Homo sapiens, UniProt O60884); assay: Competition ELISA: soluble peptide vs DJA2 binding to immobilized 1097-L
T2 construct: made in house
T2 sequence (O60884 whole entry): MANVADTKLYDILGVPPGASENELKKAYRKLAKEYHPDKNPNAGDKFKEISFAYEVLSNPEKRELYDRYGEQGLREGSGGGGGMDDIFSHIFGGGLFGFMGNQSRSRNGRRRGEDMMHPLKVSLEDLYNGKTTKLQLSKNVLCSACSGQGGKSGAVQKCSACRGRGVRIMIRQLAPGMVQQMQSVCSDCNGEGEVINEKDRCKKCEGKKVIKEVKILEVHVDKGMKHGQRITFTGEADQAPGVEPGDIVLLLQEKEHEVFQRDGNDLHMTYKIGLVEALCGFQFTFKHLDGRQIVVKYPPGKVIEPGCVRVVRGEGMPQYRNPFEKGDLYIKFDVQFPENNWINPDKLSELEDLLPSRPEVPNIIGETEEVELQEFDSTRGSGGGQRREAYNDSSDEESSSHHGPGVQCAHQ
Procedure: as §1, §2, §3, §4, §5

DJA1 [4] = target: T3, DJA1 (Homo sapiens, UniProt P31689); assay: Fluorescent peptide binding, DJA1; settings: 0.5 μM FAM-1092-S, buffer H, 45 min, ex 492 nm / em 520 nm, one site total binding fit, n ≥ 8
T3 construct: made in house
Excerpt: (§6) The CFTR peptide library was designed as 15-mers with 10-residue overlaps covering the cytosolic sequences as in Fig. 1a and Supplemental Table S1. Synthetic peptides (Mimotopes, PepSet purity) contained an N-terminal biotin followed by linker sequence GSGS and the 15-mer sequence. Soluble peptides (Lifetein) were synthesized unmodified at >85% purity, sequences in Supplemental Table S1 and S2. Fluorescent peptide 1092-S was fused to the linker sequence SG and an N-terminal 6-carboxyfluorescein (FAM) label. Peptides were reconstituted in DMSO or water.
(§7) 0.5 μM FAM-1092-S was incubated with chaperones at the indicated concentrations for 45 min. HSC70 was incubated in buffer G, DJA1 and DJA2 were incubated in buffer H. The fluorescence signal for each condition was measured at 492 nm wavelength excitation, 520 nm wavelength emission, and 5 nm slit width, using a Horiba FluoroMax spectrofluorometer. Data were collected with the FluorEssence software (Horiba). Dissociation constants (Kd) were determined by nonlinear regression fit of the averaged data to a one site – total binding model, using GraphPad Prism 8. The 95% confidence intervals and R^2 correlation coefficients are reported (Supplemental Table S3).

HSC70 [5] = target: T1, HSC70; assay: Fluorescent peptide binding, HSC70; settings: 0.5 μM FAM-1092-S, buffer G, 45 min, ex 492 nm / em 520 nm, one site total binding fit, n ≥ 8
Excerpt: as §6, §7

DJA1 [6] = target: T3, DJA1; assay: Competition ELISA: soluble peptide vs DJA1 binding to immobilized 1097-L
Procedure: as §1, §2, §3, §4, §5

DJA2 [7] = target: T2, DJA2; assay: Fluorescent peptide binding, DJA2; settings: 0.5 μM FAM-1092-S, buffer H, 45 min, ex 492 nm / em 520 nm, one site total binding fit, n ≥ 8
Excerpt: as §6, §7

HSC70 [8] = target: T1, HSC70; assay: ELISA binding of HSC70 to immobilized biotinylated CFTR peptides
Procedure: as §1, §2, §3, §4, §5

DJA1 [9] = target: T3, DJA1; assay: ELISA binding of DJA1 to immobilized biotinylated CFTR peptides; settings: 2 μM DJA1, absence of ATP, immobilized 15-mer; n ≥ 3
Procedure: as §1, §2, §3, §4, §5

Flag-tagged HSC70 = assay: Co-immunoprecipitation of luciferase with Flag-tagged HSC70 during refolding; assay type: biochemical; settings: refolding reactions stopped at 0 or 15 min, FLAG IP, Western blot, Fig. 4d
Procedure: as §1
Refolding of guanidine denatured luciferase with HSC70 and DJA2 was as described. 100 µl reactions contained 4 μM each of HSC70 and DJA2, 2 mM ATP and […] in buffer G, with the indicated concentrations of peptides. To monitor refolding, luciferase activity was measured in a luminometer (Berthold Sirius) with the luciferase assay kit (Promega). For co-IPs, 20 μL reaction aliquots were stopped by dilution at 4 °C to 500 μL with buffer containing 0.1% Triton X-100, 0.2% BSA and 0.04 mg/mL apyrase (Sigma). Reactions were incubated with FLAG-M2 magnetic beads (Sigma) for 1 h at 4 °C with agitation, then beads were isolated and washed with buffer G containing 0.1% Triton X-100, and eluted with 40 μL of 1 μg/mL FLAG peptide in the same buffer. Samples were analyzed on Western blots detected with antibodies against luciferase (Sigma, L2164) and the FLAG-M2 tag (Sigma, F1804).

DJA2 [10] = target: T2, DJA2; assay: ELISA binding of DJA2 to immobilized biotinylated CFTR peptides; settings: 2 μM DJA2, absence of ATP, immobilized 15-mer; n ≥ 3
Procedure: as §1, §2, §3, §4, §5

QKVFIFSGTF [Peptide 1295-S]
HSC70 binding site by competition screen (in words) (HSC70 [1]; 1 μM HSC70, 100 μM soluble peptide, Fig. 3c/5, cutoff twice SD of 733-L, n ≥ 4): HSC70-DJA2 sites
competition of HSC70 binding to immobilized 1097-L (in words) (HSC70 [1]): competed
Kd (HSC70 [1]): 1.26 µM
effect on luciferase refolding (in words) (HSC70 and DJA2): partial but still significant
competition of HSC70 binding to immobilized NBD1 (in words) (HSC70 [2]): effective competitors
DJA2 binding site by competition screen (in words) (DJA2 [3]; 1 μM DJA2, 100 μM soluble peptide, Fig. 3c/5, cutoff twice SD of 733-L, n ≥ 4): HSC70-DJA2 sites

NWFLYLSTL [Peptide 1092-S]
Kd from fluorescence binding, DJA1 (DJA1 [4]): single micromolar range
Kd (DJA1 [4]; read-out: Kd from fluorescence binding, DJA1): 3.97 µM
competition of HSC70 binding to immobilized 1097-L (in words) (HSC70 [1]): competed all three chaperones
Kd (HSC70 [1]): 1.26 µM
Kd from fluorescence binding, HSC70 (HSC70 [5]): single micromolar range
Kd (HSC70 [5]; read-out: Kd from fluorescence binding, HSC70): 6.17 µM
effect on luciferase refolding (in words) (HSC70 and DJA2): inhibited refolding
DJA1 binding site by competition screen (in words) (DJA1 [6]; 1 μM DJA1, 100 μM soluble peptide, Fig. 3c/5, cutoff twice SD of 733-L, n ≥ 4): one of the few sites also bound by DJA1
competition of DJA1 binding to immobilized 1097-L (in words) (DJA1 [6]; 1 μM DJA1, soluble peptide up to 100 μM): competed all three chaperones
Kd (DJA1 [6]; read-out: Kd from competition curves, DJA1): 5.47 µM
competition of HSC70 binding to immobilized NBD1 (in words) (HSC70 [2]): effective competitors
Kd from fluorescence binding, DJA2 (DJA2 [7]): single micromolar range
Kd (DJA2 [7]; read-out: Kd from fluorescence binding, DJA2): 8.46 µM
Kd (DJA2 [3]): 2.63 µM
competition of DJA2 binding to immobilized 1097-L (in words) (DJA2 [3]; 1 μM DJA2, soluble peptide up to 100 μM): competed all three chaperones

733-L: R 15-mer 726-740, negative control (EDSDEPLERRLSLVP; UniProt P13569 726-740, looked up, fragment) [Peptide 733-L]
binding in peptide library screen, HSC70 (in words) (HSC70 [8]; 2 μM HSC70, with ATP, immobilized 15-mer, n ≥ 3): low binding
titration binding / saturation, HSC70 (in words) (HSC70 [8]; HSC70 titrated to 1.5 μM on immobilized peptide, Fig. 2a, S2a, n ≥ 6): low
binding in peptide library screen, DJA1 (in words) (DJA1 [9]): low binding
luciferase bound to HSC70 in presence of peptide (in words) (Flag-tagged HSC70): luciferase was substantially bound
effect on luciferase refolding (in words) (HSC70 and DJA2): no effect
competition of HSC70 binding to immobilized NBD1 (in words) (HSC70 [2]): did not
binding in peptide library screen, DJA2 (in words) (DJA2 [10]): low binding
